Test results reported in US12459951B2, “Compounds that interact with RAS superfamily proteins for treatment of cancers, inflammatory diseases, rasopathies, and fibrotic disease” (SHY Therapeutics, LLC, priority 2022, dated 2025).

Key:
Akt phosphorylation = assay: Akt Phosphorylation Assay (western blot), Panc-1; format: cell-based, human; settings: at 10 μM, * = activation
Outline: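 Panc-1 (KRas G12D) cells were treated with compound at 10 μM final (0.3% DMSO) for 6 h at 37 °C, or with serial dilutions for IC50. Cells were either serum-starved overnight in 0.5% FBS and then stimulated with 1.5 ng/ml EGF for 15 min, or kept in 10% FBS without stimulation. Akt Ser473 phosphorylation in lysates was read by western blot.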

[1] = test system: MiaPaca-2 (expressing KRAS G12C mutant); assay: Proliferation Assay (Cell Viability Assay); format: cell-based; settings: Homo sapiens, MIA PaCa-2; read-out: Proliferation in MiaPaca-2: IC50
Outline: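 MiaPaca-2 cells (KRAS G12C) were grown in DMEM-high glucose with 10% FBS, seeded at 2000–5000 cells/well and cultured overnight. Compounds were added at 10 μM final, or as serial dilutions for IC50, in 0.3% DMSO/10% FBS for 2–4 days at 37 °C, 5% CO2. Viability was measured with CellTiter 96 Aqueous One and % inhibition calculated.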

IC50 [1] [nM]	Structure (SMILES)	% inh of Akt phosphorylation in Panc-1 (Akt phosphorylation)
< 150	COc1cncnc1Nc1nc(-c2nccn2C)nn2cc(-c3ccn(C)n3)c(C)c12 [Compound 107, N-(5-Methoxypyrimidin-4-yl)-5-methyl-2-(1-methyl-1H-imidazol-2-yl)-6-(1-methyl-1H-pyrazol-3-yl)pyrrolo[2,1-f][1,2,4]triazin-4-amine]	C* (46-84% activation)
150 to 500	Cc1c(-c2ccn(C(C)C)n2)cn2nc(-c3nccn3C)nc(Nc3nccn3C)c12 [Compound 93, 6-(1-Isopropyl-1H-pyrazol-3-yl)-5-methyl-N,2-bis(1-methyl-1H-imidazol-2-yl)pyrrolo[2,1-f][1,2,4]triazin-4-amine]	D* (85-100% activation)
> 1000	COc1cc(-c2cn3nc(-c4nccn4C)nc(N[C@@H]4CC[C@H](OC)C4)c3c2C)ccn1 (racemic) [Compound 164, rac N-((1R,3S)-3-Methoxycyclopentyl)-6-(2-methoxypyridin-4-yl)-5-methyl-2-(1-methyl-1H-imidazol-2-yl)pyrrolo[2,1-f][1,2,4]triazin-4-amine]	A* (1-25% activation)
> 1000	COCCO[C@H]1C[C@H](Nc2nc(-c3nccn3C)nn3cc(-c4cccnc4)c(C)c23)C1 [Compound 152, N-((1r,3r)-3-(2-methoxyethoxy)cyclo-butyl)-5-methyl-2-(1-methyl-1H-imidazol-2-yl)-6-(pyridin-3-yl)pyrrolo[2,1-f][1,2,4]triazin-4-amine]	B* (26-49% activation)
> 1000	COc1cc(-c2cn3nc(-c4nccn4C)nc(N[C@@H]4CC[C@@H](OC)C4)c3c2C)ccn1 (racemic) [Compound 163, rac N-((1R,3R)-3-Methoxycyclopentyl)-6-(2-methoxypyridin-4-yl)-5-methyl-2-(1-methyl-1H-imidazol-2-yl)pyrrolo[2,1-f][1,2,4]triazin-4-amine]	A* (1-25% activation)
> 1000	COc1cc(Nc2nc(-c3nccn3C)nn3cc(-c4cccnc4)c(-c4ccccn4)c23)ncn1 [Compound 167, N-(6-Methoxypyrimidin-4-yl)-2-(1-methyl-1H-imidazol-2-yl)-5-(pyridin-2-yl)-6-(pyridin-3-yl)pyrrolo[2,1-f][1,2,4]triazin-4-amine]	B* (26-49% activation)
> 1000	CO[C@H]1C[C@@H](Nc2nc(-c3nccn3C)nn3cc(-c4ccn(C)n4)c(C)c23)C1 [Compound 131, N-((1s,3s)-3-Methoxycyclobutyl)-5-methyl-2-(1-methyl-1H-imidazol-2-yl)-6-(1-methyl-1H-pyrazol-3-yl)pyrrolo[2,1-f][1,2,4]triazin-4-amine]	A (1-25% inhibition)
< 150	Cc1c(-c2ccn(C)n2)cn2nc(-c3nccn3C)nc(Nc3cc(OC4CC4)ccn3)c12 [Compound 126, N-(4-Cyclopropoxypyridin-2-yl)-5-methyl-2-(1-methyl-1H-imidazol-2-yl)-6-(1-methyl-1H-pyrazol-3-yl)pyrrolo[2,1-f][1,2,4]triazin-4-amine]	D* (85-100% activation)
< 150	COc1ccnc(Nc2nc(-c3nccn3C)nn3cc(-c4cccnc4)c(C)c23)n1 [Compound 158, N-(4-Methoxy-pyrimidin-2-yl)-5-methyl-2-(1-methyl-1H-imidazol-2-yl)-6-(pyridin-3-yl)pyrrolo[2,1-f][1,2,4]triazin-4-amine]	D* (85-100% activation)
> 1000	CO[C@@H]1CC[C@@H](Nc2nc(-c3nccn3C)nn3cc(-c4cccnc4)c(C)c23)C1 (racemic) [Compound 154, rac N-((1R,3R)-3-methoxy-cyclopentyl)-5-methyl-2-(1-methyl-1H-imidazol-2-yl)-6-(pyridin-3-yl)pyrrolo[2,1-f][1,2,4]triazin-4-amine]	B* (26-49% activation)
510 to 1000	Cc1c(-c2ccn(C)n2)cn2nc(-c3nccn3C)nc(Nc3nnco3)c12.Cl [Compound 119, N-(5-Methyl-2-(1-methyl-1H-imidazol-2-yl)-6-(1-methyl-1H-pyrazol-3-yl)pyrrolo[2,1-f][1,2,4]triazin-4-yl)-1,3,4-oxadiazol-2-amine hydrochloride salt]	D* (85-100% activation)
< 150	Cc1c(-c2ccn(C3CC3)n2)cn2nc(-c3nccn3C)nc(Nc3cc(N(C)C)ccn3)c12 [Compound 145, N^2-(6-(1-Cyclopropyl-1H-pyrazol-3-yl)-5-methyl-2-(1-methyl-1H-imidazol-2-yl)pyrrolo[2,1-f][1,2,4]triazin-4-yl)-N^4,N^4-dimethylpyridine-2,4-diamine]	D* (85-100% activation)
510 to 1000	CCc1nc(Nc2nc(-c3nccn3C)nn3cc(-c4ccn(C)n4)c(C)c23)nn1C [Compound 108, N-(5-Ethyl-1-methyl-1H-1,2,4-triazol-3-yl)-5-methyl-2-(1-methyl-1H-imidazol-2-yl)-6-(1-methyl-1H-pyrazol-3-yl)pyrrolo[2,1-f][1,2,4]triazin-4-amine]	D* (85-100% activation)
> 1000	Cc1c(-c2ccn(C(C)C)n2)cn2nc(-c3ccccn3)nc(O)c12 [Compound 8, 6-(1-Isopropyl-1H-pyrazol-3-yl)-5-methyl-2-(pyridin-2-yl)pyrrolo[2,1-f][1,2,4]triazin-4-ol]	0 (0% inhibition)
< 150	COc1ccnc(Nc2nc(-c3nccn3C)nn3cc(-c4ccn(C(F)F)n4)c(C)c23)n1 [Compound 95, 6-(1-(Difluoromethyl)-1H-pyrazol-3-yl)-N-(4-methoxypyrimidin-2-yl)-5-methyl-2-(1-methyl-1H-imidazol-2-yl)pyrrolo[2,1-f][1,2,4]triazin-4-amine]	D* (85-100% activation)
> 1000	CO[C@H]1CC[C@@H](Nc2nc(-c3nccn3C)nn3cc(-c4ccn(C)n4)c(C)c23)C1 (racemic) [Compound 133, rac N-((1R,3S)-3-Methoxycyclopentyl)-5-methyl-2-(1-methyl-1H-imidazol-2-yl)-6-(1-methyl-1H-pyrazol-3-yl)pyrrolo[2,1-f][1,2,4]triazin-4-amine]	B (26-49% inhibition)
150 to 500	Cc1c(-c2ccn(C)n2)cn2nc(-c3nccn3C)nc(Nc3cc(OCCO)ncn3)c12 [Compound 101, 2-((6-((5-Methyl-2-(1-methyl-1H-imidazol-2-yl)-6-(1-methyl-1H-pyrazol-3-yl)pyrrolo[2,1-f][1,2,4]triazin-4-yl)amino)pyrimidin-4-yl)oxy) ethan-1-ol]	D* (85-100% activation)
> 1000	CO[C@H]1CC[C@@H](Nc2nc(-c3nccn3C)nn3cc(-c4cccnc4)c(C)c23)C1 (racemic) [Compound 155, rac N-((1R,3S)-3-methoxy-cyclopentyl)-5-methyl-2-(1-methyl-1H-imidazol-2-yl)-6-(pyridin-3-yl)pyrrolo[2,1-f][1,2,4]triazin-4-amine]	A (1-25% inhibition)
